Key:
[1] = tested on: rat models with glaucoma induced by NMDA; assay: Protective effect for retinal ganglion cells against nerve damage by NMDA (thickness of inner plexiform layer); assay type: in vivo; conditions: once a day
Description: In recent years the glutamate analogue NMDA (N-methyl-D-aspartate) has been widely reported to be one of causative agents of neurodegenerative diseases including Alzheimer's disease. In the ophthalmic field, NMDA is considered to be involved in optic nerve damage in glaucoma (Brain Research Bulletin, 81 (2010) 349-358). Accordingly, in this experiment rat models with glaucoma induced by NMDA were used to evaluate the neuroprotective effect of GGA.
To Sprague-Dawley (SD) rats, the all-trans form, the 5Z-mono-cis form and teprenone were separately pre-administered by oral administration (Test Example 1), intravitreal administration (Test Example 2) or ocular instillation administration (Test Example 3) and 5 μL of NMDA was administered into the vitreous body to induce nerve damage. For Test Example 2, a marketed therapeutic eye drop for glaucoma, AIPHAGAN (trade name), was intravitreally administered as a positive control once a day for five days. For each of Test Examples, a base not containing GGA or AIPHAGAN was administered as a control in the same manner as described above.
The dosage and regimen of Test Examples 1 to 3 are shown in Table 1 and the constitution of the base used in each tests are shown in Table 2.
Three days after administration of NMDA, the eyeballs were harvested, fixed with half Karnovsky's fixative for 24 hours, embedded in paraffin, thin sectioned and stained with hematoxylin-eosin (HE) to prepare histopathological sections. The histological sections were observed under an optical microscope and the thickness (μm) of the inner plexiform layer (IPL) of the retina was measured. From the thickness of the inner plexiform layer (IPL) of the retina, the neuroprotective effects of the test preparations were evaluated.

[2] = tested on: PC12; assay: Protective effect against ischemic cell death induced by hypoxia and low glucose (Cell Titer-Glo cell viability); assay type: cell-based, rat; conditions: 30 μM, 2 h pre-incubation, then low glucose/zero percent O2 8 h, FIG. 1, n=10, Tukey-Kramer
Description: The progress of visual impairment in glaucoma is associated with retinal ganglion cell (RGC) death due to blood flow failure occurring near the optic nerve (Folia Pharmacol. Jpn. 128, 255-258 (2006)). With the use of PC12, which is a typical neural cell line established from rat adrenal […] pheochromocytoma and used also as a model cell for the functional evaluation of RGC (J Neurosci Res. 2000 May 15; 60(4): 495-503), the cytoprotective effect of GGA against ischemic cell death induced by hypoxia and low glucose was evaluated.
Test samples were prepared as follows. The test substances were four types of GGAs that contain the all-trans form and the 5Z-mono-cis form at a weight ratio of 10:0, 8:2, 6:4, and 0:10, respectively. […]
After 8 hours of incubation, 100 μL of an equivalent mixture of a cell viability detection reagent Cell Titer-Glo (Promega) and PBS was added to each well and the luminescence produced by the reaction with ATP in living cells was measured with a luminometer (GloMax; Promega). The cell viability was calculated from the measured luminescence by the following formula and the cytoprotective effect of GGA against oxidative stress by hydrogen peroxide was examined. Cell viability(%)=100×[(luminescence of base- or GGA-treated group)/(luminescence of non-treated group)]

[3] = tested on: mouse with retinal injury induced by ischemia; conditions: oral administration; cited from earlier work
[4] = tested on: multiple sclerosis mouse model; conditions: oral administration; cited from earlier work
[5] = tested on: mouse with visual cell damage induced by light irradiation; conditions: oral administration; cited from earlier work
[6] = tested on: retinal detachment-induced animal; conditions: intraperitoneal administration; cited from earlier work
[7] = tested on: glaucoma rat model; conditions: intraperitoneal administration; cited from earlier work
[8] = Test Example 1: oral 800 mg/kg, 2 days, NMDA 4 mM, FIG. 6, Dunnett

Compound | neuroprotective effect against nerve damage by NMDA compared with base (IPL thickness) [1, 8] | neuroprotective effect against nerve damage by NMDA compared with base (IPL thickness) ([1]; Test Example 2: intravitreal 0.05% w/v, 5 days, NMDA 40 mM, FIG. 7, Tukey-Kramer) | cytoprotective effect compared with GGA 6:4 [2] | number of surviving retinal neurons [3] | cell loss in the ganglion [4] | number of degenerating axons in the optic nerve [4] | visual function [4] | induction of thioredoxin and heat shock protein 72 in the retinal pigment epithelium [5] | apoptosis of visual cells [6] | expression of heat shock protein 70 [6] | expression of heat shock protein 72 [7] | retinal ganglion cell death and optic nerve damage [7]
CC(=O)CC/C=C(/C)CC/C=C(\C)CC/C=C(\C)CCC=C(C)C [5Z-mono-cis form, (5Z,9E,13E)-6,10,14,18-tetramethyl-5,9,13,17-nonadecatetrae n-2-one] | significant neuroprotective effects | significant neuroprotective effects | significantly higher cytoprotective effects | – | – | – | – | – | – | – | – | –
teprenone | did not show a significant neuroprotective effect | – | – | significantly increased the number of surviving retinal neurons | prevented cell loss in the ganglion | reduced the number of degenerating axons in the optic nerve | improved the visual function | induced thioredoxin and heat shock protein 72 in the retinal pigment epithelium | reduced the apoptosis of visual cells significantly | induced the expression of heat shock protein 70 | induced the expression of heat shock protein 72 | reduced retinal ganglion cell death and thereby ameliorated optic nerve damage
